{"source": "the NIST ThermoML archive (doi:10.1016/j.jct.2017.06.008)", "key": {"[1]": {"settings": "100 kPa, Liquid; for speed of sound: Frequency=3 MHz, Single path-length method; for mass density: Vibrating tube method"}, "[2]": {"test": "refractive index (Na D-line) (dimensionless)", "settings": "100 kPa, Liquid, Standard Abbe refractometry"}, "[3]": {"test": "xn = mol fraction of the nth substance listed", "settings": "100 kPa, Liquid, x2 = 0; for speed of sound: Frequency=3 MHz, Single path-length method; for mass density: Vibrating tube method"}, "[4]": {"test": "refractive index (Na D-line) (dimensionless); xn = mol fraction of the nth substance listed", "settings": "100 kPa, Liquid, Standard Abbe refractometry, x2 = 0"}}, "note": "Several values for one entry are separate records, joined by “and”; a condition that tells them apart may be missing. Identical values can stand only once. ± gives the expanded uncertainty stated by the source.", "data": [{"smiles": "CC(=O)CC(C)C", "note": "[4-methylpentan-2-one]", "values": [{"measurement": "speed of sound", "setting": "[1]; 293.15 K", "value": "1212.3 ± 1.6", "unit": "m/s"}, {"measurement": "mass density", "setting": "[1]; 293.15 K", "value": "801 ± 3 kg/m3 and 800 ± 3 kg/m3"}, {"measurement": "speed of sound", "setting": "[1]; 303.15 K", "value": "1171.4 ± 1.6", "unit": "m/s"}, {"measurement": "mass density", "setting": "[1]; 303.15 K", "value": "792 ± 3", "unit": "kg/m3"}, {"measurement": "speed of sound", "setting": "[1]; 313.15 K", "value": "1131.4 ± 1.6", "unit": "m/s"}, {"measurement": "mass density", "setting": "[1]; 313.15 K", "value": "782 ± 3", "unit": "kg/m3"}, {"measurement": "refractive index", "setting": "[2]; 293.15 K", "value": "1.396 ± 0.005"}, {"measurement": "refractive index", "setting": "[2]; 303.15 K", "value": "1.391 ± 0.005"}, {"measurement": "refractive index", "setting": "[2]; 313.15 K", "value": "1.387 ± 0.005"}]}, {"smiles": "CC(C)=O", "note": "[acetone]", "values": [{"measurement": "speed of sound", "setting": "[1]; 293.15 K", "value": "1184.3 ± 1.4", "unit": "m/s"}, {"measurement": "mass density", "setting": "[1]; 293.15 K", "value": "790 ± 3", "unit": "kg/m3"}, {"measurement": "speed of sound", "setting": "[1]; 303.15 K", "value": "1139.4 ± 1.4", "unit": "m/s"}, {"measurement": "mass density", "setting": "[1]; 303.15 K", "value": "779 ± 3", "unit": "kg/m3"}, {"measurement": "speed of sound", "setting": "[1]; 313.15 K", "value": "1094.6 ± 1.4", "unit": "m/s"}, {"measurement": "mass density", "setting": "[1]; 313.15 K", "value": "767 ± 3", "unit": "kg/m3"}, {"measurement": "refractive index", "setting": "[2]; 293.15 K", "value": "1.359 ± 0.005"}, {"measurement": "refractive index", "setting": "[2]; 303.15 K", "value": "1.353 ± 0.005"}, {"measurement": "refractive index", "setting": "[2]; 313.15 K", "value": "1.348 ± 0.005"}]}, {"smiles": "CC(C)=O", "note": "[acetone] + CC(=O)CC(C)C", "values": [{"measurement": "speed of sound", "setting": "[3]; 293.15 K", "value": "1184.3 ± 1.4", "unit": "m/s"}, {"measurement": "mass density", "setting": "[3]; 293.15 K", "value": "790 ± 3", "unit": "kg/m3"}, {"measurement": "speed of sound", "setting": "[3]; 303.15 K", "value": "1139.4 ± 1.4", "unit": "m/s"}, {"measurement": "mass density", "setting": "[3]; 303.15 K", "value": "779 ± 3", "unit": "kg/m3"}, {"measurement": "speed of sound", "setting": "[3]; 313.15 K", "value": "1094.6 ± 1.4", "unit": "m/s"}, {"measurement": "mass density", "setting": "[3]; 313.15 K", "value": "767 ± 3", "unit": "kg/m3"}, {"measurement": "refractive index", "setting": "[4]; 293.15 K", "value": "1.359 ± 0.005"}, {"measurement": "refractive index", "setting": "[4]; 303.15 K", "value": "1.353 ± 0.005"}, {"measurement": "refractive index", "setting": "[4]; 313.15 K", "value": "1.348 ± 0.005"}]}, {"smiles": "CC#N", "note": "[acetonitrile]", "values": [{"measurement": "speed of sound", "setting": "[1]; 293.15 K", "value": "1299.7 ± 1.3", "unit": "m/s"}, {"measurement": "mass density", "setting": "[1]; 293.15 K", "value": "782 ± 3", "unit": "kg/m3"}, {"measurement": "speed of sound", "setting": "[1]; 303.15 K", "value": "1258.8 ± 1.3", "unit": "m/s"}, {"measurement": "mass density", "setting": "[1]; 303.15 K", "value": "771 ± 3", "unit": "kg/m3"}, {"measurement": "speed of sound", "setting": "[1]; 313.15 K", "value": "1218.4 ± 1.3", "unit": "m/s"}, {"measurement": "mass density", "setting": "[1]; 313.15 K", "value": "760 ± 3", "unit": "kg/m3"}, {"measurement": "refractive index", "setting": "[2]; 293.15 K", "value": "1.344 ± 0.005"}, {"measurement": "refractive index", "setting": "[2]; 303.15 K", "value": "1.339 ± 0.005"}, {"measurement": "refractive index", "setting": "[2]; 313.15 K", "value": "1.334 ± 0.005"}]}, {"smiles": "CC#N", "note": "[acetonitrile] + CC(=O)CC(C)C", "values": [{"measurement": "speed of sound", "setting": "[3]; 293.15 K", "value": "1299.7 ± 1.3", "unit": "m/s"}, {"measurement": "mass density", "setting": "[3]; 293.15 K", "value": "782 ± 3", "unit": "kg/m3"}, {"measurement": "speed of sound", "setting": "[3]; 303.15 K", "value": "1258.8 ± 1.3", "unit": "m/s"}, {"measurement": "mass density", "setting": "[3]; 303.15 K", "value": "771 ± 3", "unit": "kg/m3"}, {"measurement": "speed of sound", "setting": "[3]; 313.15 K", "value": "1218.4 ± 1.3", "unit": "m/s"}, {"measurement": "mass density", "setting": "[3]; 313.15 K", "value": "760 ± 3", "unit": "kg/m3"}, {"measurement": "refractive index", "setting": "[4]; 293.15 K", "value": "1.344 ± 0.005"}, {"measurement": "refractive index", "setting": "[4]; 303.15 K", "value": "1.339 ± 0.005"}, {"measurement": "refractive index", "setting": "[4]; 313.15 K", "value": "1.334 ± 0.005"}]}, {"smiles": "C1CCCCC1", "note": "[cyclohexane]", "values": [{"measurement": "speed of sound", "setting": "[1]; 293.15 K", "value": "1279.5 ± 1.4", "unit": "m/s"}, {"measurement": "mass density", "setting": "[1]; 293.15 K", "value": "779 ± 3 kg/m3 and 778 ± 3 kg/m3"}, {"measurement": "speed of sound", "setting": "[1]; 303.15 K", "value": "1230.1 ± 1.4", "unit": "m/s"}, {"measurement": "mass density", "setting": "[1]; 303.15 K", "value": "769 ± 3", "unit": "kg/m3"}, {"measurement": "speed of sound", "setting": "[1]; 313.15 K", "value": "1181.8 ± 1.4", "unit": "m/s"}, {"measurement": "mass density", "setting": "[1]; 313.15 K", "value": "760 ± 3 kg/m3 and 759 ± 3 kg/m3"}, {"measurement": "refractive index", "setting": "[2]; 293.15 K", "value": "1.426 ± 0.005"}, {"measurement": "refractive index", "setting": "[2]; 303.15 K", "value": "1.421 ± 0.005"}, {"measurement": "refractive index", "setting": "[2]; 313.15 K", "value": "1.415 ± 0.005"}]}, {"smiles": "C1CCCCC1", "note": "[cyclohexane] + CC(=O)CC(C)C", "values": [{"measurement": "speed of sound", "setting": "[3]; 293.15 K", "value": "1279.5 ± 1.4", "unit": "m/s"}, {"measurement": "mass density", "setting": "[3]; 293.15 K", "value": "779 ± 3", "unit": "kg/m3"}, {"measurement": "speed of sound", "setting": "[3]; 303.15 K", "value": "1230.1 ± 1.4", "unit": "m/s"}, {"measurement": "mass density", "setting": "[3]; 303.15 K", "value": "769 ± 3", "unit": "kg/m3"}, {"measurement": "speed of sound", "setting": "[3]; 313.15 K", "value": "1181.8 ± 1.4", "unit": "m/s"}, {"measurement": "mass density", "setting": "[3]; 313.15 K", "value": "760 ± 3", "unit": "kg/m3"}, {"measurement": "refractive index", "setting": "[4]; 293.15 K", "value": "1.426 ± 0.005"}, {"measurement": "refractive index", "setting": "[4]; 303.15 K", "value": "1.421 ± 0.005"}, {"measurement": "refractive index", "setting": "[4]; 313.15 K", "value": "1.415 ± 0.005"}]}, {"smiles": "C[S+](C)[O-]", "note": "[dimethyl sulfoxide]", "values": [{"measurement": "speed of sound", "setting": "[1]; 293.15 K", "value": "1504.7 ± 1.4", "unit": "m/s"}, {"measurement": "mass density", "setting": "[1]; 293.15 K", "value": "1100 ± 3", "unit": "kg/m3"}, {"measurement": "speed of sound", "setting": "[1]; 303.15 K", "value": "1471 ± 1.4", "unit": "m/s"}, {"measurement": "mass density", "setting": "[1]; 303.15 K", "value": "1090 ± 3", "unit": "kg/m3"}, {"measurement": "speed of sound", "setting": "[1]; 313.15 K", "value": "1437.4 ± 1.4", "unit": "m/s"}, {"measurement": "mass density", "setting": "[1]; 313.15 K", "value": "1080 ± 3", "unit": "kg/m3"}, {"measurement": "refractive index", "setting": "[2]; 293.15 K", "value": "1.48 ± 0.005 and 1.479 ± 0.005"}, {"measurement": "refractive index", "setting": "[2]; 303.15 K", "value": "1.475 ± 0.005"}, {"measurement": "refractive index", "setting": "[2]; 313.15 K", "value": "1.47 ± 0.005"}]}, {"smiles": "C[S+](C)[O-]", "note": "[dimethyl sulfoxide] + CC(=O)CC(C)C", "values": [{"measurement": "speed of sound", "setting": "[3]; 293.15 K", "value": "1504.7 ± 1.4", "unit": "m/s"}, {"measurement": "mass density", "setting": "[3]; 293.15 K", "value": "1100 ± 3", "unit": "kg/m3"}, {"measurement": "speed of sound", "setting": "[3]; 303.15 K", "value": "1471 ± 1.4", "unit": "m/s"}, {"measurement": "mass density", "setting": "[3]; 303.15 K", "value": "1090 ± 3", "unit": "kg/m3"}, {"measurement": "speed of sound", "setting": "[3]; 313.15 K", "value": "1437.4 ± 1.4", "unit": "m/s"}, {"measurement": "mass density", "setting": "[3]; 313.15 K", "value": "1080 ± 3", "unit": "kg/m3"}, {"measurement": "refractive index", "setting": "[4]; 293.15 K", "value": "1.48 ± 0.005"}, {"measurement": "refractive index", "setting": "[4]; 303.15 K", "value": "1.475 ± 0.005"}, {"measurement": "refractive index", "setting": "[4]; 313.15 K", "value": "1.47 ± 0.005"}]}]}
